Assay results from patent US20090130165A1, “MIF Inhibitors” (Cortical Pty Ltd, priority 2005, published 2009).
Values after ≈ are worked out from the molar mass of the structure shown. Read-outs that look alike come from different tables or passages of the source.

Assays:
[1] = biological target: T1, immobilized recombinant MIF protein (Homo sapiens, UniProt P14174); test: Interaction of compounds with MIF protein by Surface Plasmon Resonance (Biacore S51); type: binding; settings: SPR; for kon / Kinetics Method Kd (10^−3 s^−1) / Kd: immobilized MIF; for kon: association rate, read-out: Kinetics Method Ka (10^3 M^−1s^−1); for Kinetics Method Kd (10^−3 s^−1): dissociation rate; for equilibrium dissociation constant (KD) values, in words: immobilized recombinant MIF
T1 sequence (P14174 2-115 limits assumed): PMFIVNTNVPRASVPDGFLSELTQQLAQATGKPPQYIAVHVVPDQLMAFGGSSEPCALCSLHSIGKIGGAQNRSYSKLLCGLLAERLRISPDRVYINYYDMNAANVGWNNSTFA
Procedure: The interaction of compounds with MIF protein was characterized by Surface Plasmon Resonance (SPR) analysis using an S51 (Biacore International AB) automated small molecule biosensor assay system. Recombinant MIF protein was immobilized on a carboxymethyl dextran biosensor chip using amine coupling chemistry. Compound binding to the immobilized MIF protein was measured at 11 concentrations up to 100 uM (in duplicate), with corrections for the DMSO used as a solvent at a final concentration of 5%. The change in SPR output relative to that of a control underivatized reference spot was recorded over time. The affinity and stoichiometry of interaction was calculated using steady state and/or kinetics evaluation methods with software supplied by the manufacturer.

[2] = tested on: LPS-induced IL-6 production in RAW264.7 mouse macrophage cell line; test: Inhibition of LPS-induced production of IL-6 in RAW264.7 macrophages; type: cell-based; settings: 50 uM compound, 100 ng/ml LPS 4 hr, RAW264.7 cells, relative to LPS+DMSO control
Procedure: MIF is an important factor in the innate immune response to toxins such as the bacterial endotoxin lipopolysaccharide (LPS). […] A compound with the ability to inhibit the biological activity of MIF would therefore inhibit the activation of cytokine production by macrophages in response to LPS. The RAW264.7 mouse macrophage cell line was propagated in DMEM/10% foetal calf serum (FCS) at 37° C. in 5% CO2. 24 hr prior to assay cells were seeded in 96-well tissue culture plates. Cells were allowed to adhere for 4 hr prior to transfer to DMEM/0.5% FCS for 18 hr. Cells were then treated with 50 uM compound in DMSO for 30 min prior to stimulation for 4 hr with 100 ng/ml LPS. Cell culture supernatants were then collected from each well and assayed for IL-6 levels by ELISA (R&D Systems) according to the manufacturer's instructions.

C57Bl/6j mice = test: In vivo assay of MIF antagonism: murine endotoxic shock model, serum TNF; parameters: species or system mouse; settings: intra-peritoneal, 10, 1 and 0.1 mg/kg at 24 hours and 1 hour before LPS 1 mg/kg (FIG. 3)
Procedure: The activities of compounds were studied in the murine endotoxic shock model. This model has been previously shown to be dependent on MIF^(14). Administration of a compound which inhibits the cytokine activity of MIF would be expected to result hi a reduction in serum level s of the pro-inflammatory cytokine TNF.
Endotoxaemia was induced by intra-peritoneal Injection of C57Bl/6j mice with lipopolysaccharide (LPS) (1 mg/kg) in 200 μl saline. Animals were treated with either a saline solution (control) only, or LPS with vehicle or compounds B1 and A3 in vehicle at doses of 10, 1 and 0.1 mg/kg body weight, administered by intra-peritoncal injection at 24 hours and 1 hour before intra-peritoneal LPS injection. After 1 hour mice were humanely killed by CO2 inhalation then neck dislocation. Serum was obtained from blood obtained by cardiac puncture prior to death and measured for TNF levels by ELISA according to the manufacturer's instructions.

mice = test: Delayed-type hypersensitivity reaction to mBSA, footpad swelling; type: in vivo, mouse; settings: 5 and 15 mg/kg/24 h IP, twice daily for 7 days prior to mBSA challenge and further 24 h (FIG. 4)
Description: Delayed-type hypersensitivity reactions, which are initiated by T lymphocyte responses to recall antigens and mediated by many cell types including macrophages, are known to be dependent on the cytokine or biological activity of MIF^(16,17). For example, an anti-MIF monoclonal antibody suppresses delayed-type hypersensitivity reactions in vivo to methylated bovine scrum albumin (mBSA) injected into the skin of animals preimmunised with mBSA^(16). A compound inhibiting die cytokine or biological function of MIF might be expected to inhibit delayed-type hypersensitivity reactions in vivo.
Mice were immunised on day 0 with 200 μg of methylated BSA (mBSA; Sigma Chemical Co., Castle Hill, Australia) emulsified in 0.2 ml of Freund's complete adjuvant (CFA; Sigma) injected subcutaneously in the flank skin. At day 7, mice were given 100 μg mBSA in 0.1 ml CFA by intradermal injection at the base of the tail. […] Mice were killed 24 h later and footpad swelling quantified using micro calipers (Mitutoyo, Kawasaki-shi, Japan). […] Results were expressed as the difference in footpad swelling between mBSA and saline-injected footpads, and expressed as change in footpad thickness (mm). […] Treatment with compound 13 continued for a further 24 h and changes in footpad thickness relative to control paws were measured at that time.

[3] = tested on: Recombinant human MIF-induced leukocyte-endothelial cell adhesion in mice; test: rhMIF-induced leukocyte adhesion, intravital microscopy of cremaster muscle; type: in vivo, mouse; settings: 30 mg/kg intraperitoneal 10 minutes prior to intrascrotal MIF, 4 hours (FIG. 5)
Description: As will be known to those skilled in the art, the adherence of leukocytes to the endothelium in vivo can be studied using the technique of intravital microscopy^(18,19). As MIF induces leukocyte adherence to vascular endothelium as measured using intravital microscopy, a compound inhibiting the Cytokine or biological activity of MIF might be expected to inhibit the effects of MIF observable using intravital microscopy.
Mice were anesthetised with ketamine/xylazine, and the cremaster muscle was exteriorized onto an optically-clear viewing pedestal. The cremasteric microcirculation was visualized using an intravital microscope (Axioplan 2 Imaging; Carl Zeiss, Australia) with a 20× objective lens (LD Achroplan 20×/0.40 NA, Carl Zeiss, Australia) and a 10× eyepiece. Three-five postcapillary venules (25-40 μm in diameter) were examined for each experiment. Images were visualized using a video camera and recorded on video-tape for subsequent playback analysis. Recombinant human MIF ([…]) was injected intrascrotally in 150 μL saline, prior to intravital microscopy 4 hours later. Leukocyte-endothelial cell adhesion, was assessed as described by Gregory et al^(19). Compound 13 at a dose of 30 mg/kg or vehicle were administered by intraperitoneal injection 10 minutes prior to intrascrotal injection of MIF.

[4] = biological target: T2, Recombinant human MIF protein (Homo sapiens, UniProt P14174); test: Inhibition of MIF tautisomerase activity (L-dopachrome); type: biochemical; settings: mean±standard deviation of 2-4 experiments
T2 sequence (P14174 2-115 limits assumed): T1 sequence (P14174 2-115 limits assumed)
Procedure: MIF protein has the ability in vitro to catalyze the tautisomerization of dopachrome^(15).
Recombinant human MIF protein was pre-incubated with compounds as indicated prior to the addition of L-dopachrome substrate. Tautomerase activity was determined by measurement of die decrease in absorbance at 475 nm after 2 min. […]

[5] = tested on: LPS-induced IL-6 production in RAW264.7 mouse macrophage cell line; test: Inhibition of LPS-induced production of IL-6 in RAW264.7 macrophages; type: cell-based; settings: RAW264.7 cells, up to 100 μM compound (FIG. 1)
[6] = tested on: IL-1 induced COX-2 expression in S112 human dermal fibroblasts; test: Inhibition of interleukin-1 induction of cyclooxygenase-2 expression in S112 human dermal fibroblasts; type: cell-based; settings: S112 cells, up to 100 μM compound, IL-1 0.1 ng/ml, 6 hours (FIG. 2)
Description: The activity of compounds was studied in a bioassay for MIF-dependent cytokine effects of human S112 dermal fibroblasts. In these cells the induction of the expression of cyclooxygenase-2 (COX-2) protein by interleukin 1 (IL-1) is dependent upon the presence of endogenous MIF^(13). The expression of COX2 proteins is therefore sensitive to depiction of endogenous MIF by neutralizing antibody, gene knockout of targeting with small molecule inhibitors. A compound with the ability to inhibit the biological activity of MIF would therefore inhibit die activation of COX2 expression hi response to IL-1.
S112 human dermal fibroblasts were propagated in RPMI/10% foetal calf serum (FCS). Prior to experimentation, cells were seeded at 10^5 cells/ml in RPMI/0.1% BSA for 18 hours. Cells were treated with recombinant human IL-1 (0.1 ng/ml) and with each compound at concentrations ranging up to 100 μM. A control was treated only with recombinant human TL-1 (0.1 ng/ml) and vehicle (DMSO). After 6 hours, cells were collected and intracellular COX-2 protein determined by permeabilisation flow cytometry. […] Cellular fluorescence was determined using a flow cytometer. At least 5000 events were counted for each reading, each of which was performed in duplicate, and the results expressed in mean fluorescence intensity (MFI) after subtraction of negative control-labelled cell fluorescence.

[7] = Lower limits of aqueous solubility by nephelometry; type: physicochemical; settings: phosphate-buffered saline with 0.005% (v/v) P20 and 5% DMSO, aqueous with cosolvent or surfactant or cyclodextrin, kinetic from dmso stock, 0.005% (v/v) P20, 5% DMSO, read-out: Solubility Lower Limit Range
Procedure: Lower limits of aqueous compound solubility were determined in a nepholometer in phosphate-buffered saline containing 0.005% (v/v) P20 and a final concentration of 5% DMSO. Briefly, compounds were initially dissolved in DMSO as a 10 mM stock solution and diluted to 1 mM and 0.5 mM working solutions with neat DMSO. The compounds were then titrated in DMSO and a constant volume of DMSO stock added to filtered PBS/P20 solution so that the final DMSO concentration was 5%. The solubility was then determined in clear, flat-bottom 96-well plates using the nephelometer and reported as the concentration range at which the compound begins to precipitate from solution.

[8] = kinetics evaluation, read-out: Kinetics Method Kd
[9] = steady state evaluation, 5% DMSO, read-out: Steady State Method (equilibrium dissociation constant KD)

| SMILES | kon [1] [M⁻¹ s⁻¹] | Kinetics Method Kd (10^−3 s^−1) [1] | Kd [1, 8] [µM] | Kd [1, 9] [µM] | equilibrium dissociation constant (KD) values, in words [1] | inhibition at 50 µM [2] [%] | suppression of LPS-induced serum TNF levels, in words (C57Bl/6j mice) | inhibition of DTH reactions (change in footpad thickness), in words (mice) | reduction of MIF-induced leukocyte adhesion [3] | inhibition at 50 µM ([4]; 50 uM compound) [%] | inhibition at 100 µM ([4]; 100 uM compound) [%] | IC50 ([5]; Mus musculus) [µM] | inhibition of LPS-induced IL-6 production, in words [5] | inhibition of IL-1 induced COX-2 expression, in words [6] | solubility [7] [µg/mL] |
| --- | --- | --- | --- | --- | --- | --- | --- | --- | --- | --- | --- | --- | --- | --- | --- |
| O=C(O)CCSCC(=O)c1cc2c(cc1Cl)NC(=O)C2 [Compound 13, 3-((2-(6-chloro-2-oxo-2,3-dihydro-1H-indol-5-yl)-2-oxoethyl)thio)propanoic acid] | 600 ± 200 | 1.3 ± 0.3 10^−3 s^−1 | 2.5 ± 1.2 | 10 ± 1.4 | low micromolar range | 32 ± 30 | significant dose-dependent suppression | significant inhibition | approximately 50% | – | – | – | – | – | – |
| CCCCSCC(=O)c1ccc2[nH]c(=O)sc2c1 [Compound 19, 6-((Butylthio)acetyl)-1,3-benzothiazol-2(3H)-one] | 2200 ± 1000 | 6.2 ± 1.2 10^−3 s^−1 | 3.6 ± 1 | 27 ± 2.3 | low micromolar range | 82 ± 13 | significant dose-dependent suppression | – | – | 9 ± 4 | 17 ± 8 | 20 | dose-dependent inhibition | – | – |
| O=C(O)CCSCC(=O)c1ccc2c(c1)CC(=O)N2 [Compound 2] | – | – | – | – | – | – | significant dose-dependent suppression | – | – | – | – | – | – | dose-dependent inhibition | – |
| O=C(O)CCSCC(=O)c1ccc2[nH]c(=O)[nH]c2c1 [Compound 4, 3-((2-oxo-2-(2-oxo-2,3-dihydro-1H-benzimidazol-5-yl)ethyl)thio)propanoic acid] | – | – | – | 5.1 | low micromolar range | 5 ± 49 | significant dose-dependent suppression | – | – | – | – | – | – | – | > 140 |
| O=C(CSCCCCCCO)c1ccc2[nH]c(=O)oc2c1 [Compound 15, 6-(((6-Hydroxyhexyl)thio)acetyl)-1,3-benzoxazol-2(3H)-one] | – | – | – | – | – | 42 ± 40 | significant dose-dependent suppression | – | – | – | – | – | – | – | 77 to 250 (≈ 249 to 808 µM) |
